Test [1] deals with histamine receptor H1 (Homo sapiens, UniProt P35367). As to the kind of experiment: Histamine H1 radioligand binding ([3H]Pyrilamine). Conditions: read-out: Histamine Binding (1 μM) H1, percent inhibition of specific binding, 1 μM. The method in brief: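 Values are percent inhibition of specific [3H]pyrilamine (1.2 nM) binding with compounds at ≤1 μM (1% DMSO vehicle); 180 min incubation at 25 °C, pH 7.4 Tris buffer, on CHO-expressed human H1 receptor; 1 μM pyrilamine defined nonspecific binding, bound ligand counted after filtration.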
Sequence of histamine receptor H1 (P35367 whole entry): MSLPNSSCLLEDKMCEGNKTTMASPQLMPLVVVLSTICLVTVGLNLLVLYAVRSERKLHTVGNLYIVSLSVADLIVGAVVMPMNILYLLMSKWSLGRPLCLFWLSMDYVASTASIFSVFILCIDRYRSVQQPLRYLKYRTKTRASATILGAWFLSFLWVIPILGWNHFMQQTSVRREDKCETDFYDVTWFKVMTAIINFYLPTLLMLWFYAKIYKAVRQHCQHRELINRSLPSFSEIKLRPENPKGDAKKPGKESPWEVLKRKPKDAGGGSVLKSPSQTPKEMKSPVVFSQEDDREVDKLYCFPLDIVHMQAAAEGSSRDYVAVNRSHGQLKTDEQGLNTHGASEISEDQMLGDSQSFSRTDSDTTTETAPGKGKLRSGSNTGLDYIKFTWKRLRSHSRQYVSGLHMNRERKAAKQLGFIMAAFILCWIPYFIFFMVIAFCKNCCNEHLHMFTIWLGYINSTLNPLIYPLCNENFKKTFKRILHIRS

Test [2] concerns the target human recombinant serotonin (5-Hydroxytryptamine) 5-HT7 receptor (Homo sapiens, UniProt P34969). Briefly: Serotonin 5-HT7 radioligand binding ([3H]LSD). Conditions: read-out: Inhibition of ligand binding, Serotonin 5-HT7 (percent inhibition of specific binding); for inhibition at 0.1 µM: compound at 0.1 μM; for inhibition at 1 µM: compound at 1 μM. The source says:
Receptor proteins were filtered and washed, the filters were then counted to determine [^3H]LSD specifically bound.

Test [3] concerns the target T1, human recombinant serotonin 5-HT1B receptor (Homo sapiens, UniProt P28222).
T1 construct: expressed in transfected cells; host or cells: CHO-K1 cell line, membrane extracts
As to the kind of experiment: 5-HT1B radioligand binding competition assay ([3H]5-CT, CHO-K1 membranes). The note with it: 5 μM, in duplicate, average. The protocol: To determine the binding activity at the human recombinant serotonin 5-HT1B receptor of compounds of the invention, CHO-K1 cell line expressing the human 5-HT1B recombinant receptor was amplified to prepare membranes used for the radioligand binding assay throughout the study. Radioligand binding competition on 5-HT1B was performed by adding successively in the wells of a 96 well plate (Master Block, Greiner, 786201). […] The plate was incubated 60 min at 25° C. in a water bath and then filtered over GF/B filters (Perkin Elmer, 6005177, presoaked in 0.5% PE1 for 2 h at room temperature) with a Filtration unit (Perkin Elmer). The filters were washed 3× with 0.5 mL of ice-cold washing buffer (50 mM Tris pH 7.4). 50 μL Microscint 20 (Packard) was added and the plate was incubated 15 min on an orbital shaker and then counted with a TopCount™ for 1 min/well.
The reference value thus obtained for the test was compared to a historical value obtained from the same receptor and used to validate the experimental session. […] For replicate determinations, the maximum variability tolerated in the test was of +/−20% around the average of the replicates.
Compounds were tested for binding activity in the radioligand binding competition assay on human 5-HT1B receptor, at one concentration […], in duplicate. Dose-response data from test compounds were analyzed with XLfit (IDBS) software using nonlinear regression applied to a sigmoidal dose-response model.
Dose-response data was analyzed with XLfit (IDBS) software using non-linear regression applied to a sigmoidal dose-response model.

Test [4] deals with human dopamine D2L receptor (Homo sapiens, UniProt P14416). As to the kind of experiment: Dopamine D2L radioligand binding ([3H]Spiperone). The note with it: compound at 1 μM. An excerpt: Non-specific binding was estimated in the presence of […] Haloperidol. Receptor proteins were filtered and washed, the filters were then counted to determine [^3H]Spiperone specifically bound. […] Biochemical assay results are presented as the percent inhibition of specific binding in Table 9.
Sequence of human dopamine D2L receptor (P14416 whole entry): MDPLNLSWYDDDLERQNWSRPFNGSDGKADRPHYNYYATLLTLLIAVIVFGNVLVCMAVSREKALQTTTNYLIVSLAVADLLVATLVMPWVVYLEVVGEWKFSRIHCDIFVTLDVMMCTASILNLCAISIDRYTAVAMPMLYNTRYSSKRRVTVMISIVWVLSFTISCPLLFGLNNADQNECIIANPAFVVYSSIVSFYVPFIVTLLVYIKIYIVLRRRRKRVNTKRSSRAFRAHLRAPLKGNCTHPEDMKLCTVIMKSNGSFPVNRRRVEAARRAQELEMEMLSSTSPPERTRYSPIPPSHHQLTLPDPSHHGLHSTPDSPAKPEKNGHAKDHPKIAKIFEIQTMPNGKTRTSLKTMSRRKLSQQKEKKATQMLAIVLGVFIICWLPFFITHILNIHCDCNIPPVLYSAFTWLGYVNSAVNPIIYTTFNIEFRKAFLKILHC

Test [5] concerns the target T2, human recombinant serotonin (5-Hydroxytryptamine) 5-HT2A receptor (Homo sapiens, UniProt P28223).
T2 construct: expressed in transfected cells; host or cells: Chinese hamster ovary (CHO-K1) cells
Briefly: Serotonin 5-HT2A radioligand binding ([3H]Ketanserin). The note with it: for inhibition at 0.1 µM: read-out: Inhibition of ligand binding, Serotonin 5-HT2A (percent inhibition of specific binding), compound at 0.1 μM; for inhibition at 1 µM: read-out: Inhibition of ligand binding, Serotonin 5-HT2A (percent inhibition of specific binding), compound at 1 μM. On the procedure:
Compounds of the invention were incubated with 0.5 nM [^3H]Ketanserin for 60 min. at 25° C. Non-specific binding was estimated in the presence of 1 μM Mianserin. Receptor proteins were filtered and washed, the filters were then counted to determine [^3H]Ketanserin specifically bound.

In test [6] the target is T3, human recombinant serotonin (5-Hydroxytryptamine) 5-HT2C receptor (Homo sapiens, UniProt P28335).
T3 construct: expressed in transfected cells; host or cells: Chinese hamster ovary (CHO-K1) cells
T3 sequence (P28335 33-458): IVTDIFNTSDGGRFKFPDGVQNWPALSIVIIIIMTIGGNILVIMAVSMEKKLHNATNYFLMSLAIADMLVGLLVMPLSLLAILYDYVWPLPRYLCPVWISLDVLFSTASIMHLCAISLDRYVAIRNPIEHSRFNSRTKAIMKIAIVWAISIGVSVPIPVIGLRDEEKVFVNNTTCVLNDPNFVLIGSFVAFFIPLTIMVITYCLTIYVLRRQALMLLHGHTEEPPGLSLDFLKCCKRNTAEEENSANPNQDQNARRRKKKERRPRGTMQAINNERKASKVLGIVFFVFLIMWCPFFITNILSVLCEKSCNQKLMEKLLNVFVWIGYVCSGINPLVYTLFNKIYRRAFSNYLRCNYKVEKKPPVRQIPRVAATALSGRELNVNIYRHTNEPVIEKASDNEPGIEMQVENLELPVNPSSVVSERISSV
As to the kind of experiment: Serotonin 5-HT2C radioligand binding ([3H]Mesulergine). The note with it: read-out: Inhibition of ligand binding, Serotonin 5-HT2C (percent inhibition of specific binding); for inhibition at 0.1 µM: compound at 0.1 μM; for inhibition at 1 µM: compound at 1 μM. The method in brief:
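Compounds tested at 1 μM or lower (1% DMSO vehicle) for displacement of 1 nM [3H]Mesulergine over 60 min at 25° C. Specific binding determined by filtration counting, with 1 μM Mianserin defining non-specific binding; values are percent inhibition.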

Test [7] concerns the target T4, human recombinant serotonin (5-Hydroxytryptamine) 5-HT6 receptor (Homo sapiens, UniProt P50406).
T4 construct: expressed in transfected cells; host or cells: human HeLa cells
As to the kind of experiment: Serotonin 5-HT6 radioligand binding ([3H]LSD). Conditions: read-out: Inhibition of ligand binding, Serotonin 5-HT6 (percent inhibition of specific binding); for inhibition at 0.1 µM: compound at 0.1 μM; for inhibition at 1 µM: compound at 1 μM. On the procedure:
Compounds of the invention were incubated with 1.5 nM [3H]Lysergic acid diethylamide (LSD) for 120 min. at 37° C. […] Receptor proteins were filtered and washed, the filters were then counted to determine [3H]LSD specifically bound. Compounds were screened at 1 μM or lower, using 1% DMSO as vehicle. Biochemical assay results are presented as the percent inhibition of specific binding in Table 10.

Test [8] has as its target T5, human recombinant histamine H2 receptor (Homo sapiens, UniProt P25021).
T5 construct: expressed in transfected cells; host or cells: Chinese hamster ovary (CHO) K1 cells
As to the kind of experiment: Histamine H2 radioligand binding ([125I]Aminopotentidine). The note with it: read-out: Histamine Binding (1 μM) H2, percent inhibition of specific binding, 1 μM. The method in brief: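 Receptor source: human recombinant H2 in CHO-K1 cells, assayed in 50 mM phosphate pH 7.4. Competition against 0.1 nM [125I]aminopotentidine, 120 min, 25 °C; 3 μM tiotidine sets nonspecific binding, filter-bound counts give specific binding.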

The mark [9] stands for this setting: percent inhibition of specific binding, read-out: Inhibition of ligand binding, Dopamine D2L.

Molecules are shown by their SMILES. Where two headings read alike, the source gives them in different places.

T4 sequence (P50406 whole entry): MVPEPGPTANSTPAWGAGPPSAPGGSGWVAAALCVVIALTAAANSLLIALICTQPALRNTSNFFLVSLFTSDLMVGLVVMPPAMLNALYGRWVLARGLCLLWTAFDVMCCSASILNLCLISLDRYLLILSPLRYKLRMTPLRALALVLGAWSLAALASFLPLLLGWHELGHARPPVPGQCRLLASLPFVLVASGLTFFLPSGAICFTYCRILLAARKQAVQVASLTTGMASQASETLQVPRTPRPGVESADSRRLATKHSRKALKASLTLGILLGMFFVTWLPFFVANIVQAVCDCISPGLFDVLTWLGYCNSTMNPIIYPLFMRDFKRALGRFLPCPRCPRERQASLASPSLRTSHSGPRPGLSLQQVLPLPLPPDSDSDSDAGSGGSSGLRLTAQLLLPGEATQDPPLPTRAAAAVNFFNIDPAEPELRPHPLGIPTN
Sequence of human recombinant serotonin (5-Hydroxytryptamine) 5-HT7 receptor (P34969 whole entry): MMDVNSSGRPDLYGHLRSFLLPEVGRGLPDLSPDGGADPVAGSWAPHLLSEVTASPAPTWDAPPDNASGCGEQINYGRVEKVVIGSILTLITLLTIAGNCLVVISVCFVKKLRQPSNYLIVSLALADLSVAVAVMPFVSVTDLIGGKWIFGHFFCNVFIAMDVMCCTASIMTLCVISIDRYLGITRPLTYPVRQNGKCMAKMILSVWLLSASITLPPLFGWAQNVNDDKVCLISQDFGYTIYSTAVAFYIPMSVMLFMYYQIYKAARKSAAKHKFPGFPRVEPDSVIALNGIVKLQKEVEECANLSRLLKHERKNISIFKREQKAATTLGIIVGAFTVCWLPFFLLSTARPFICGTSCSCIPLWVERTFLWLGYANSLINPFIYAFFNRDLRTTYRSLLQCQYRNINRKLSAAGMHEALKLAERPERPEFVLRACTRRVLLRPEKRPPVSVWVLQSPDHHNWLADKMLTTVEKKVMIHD
T2 sequence (P28223 whole entry): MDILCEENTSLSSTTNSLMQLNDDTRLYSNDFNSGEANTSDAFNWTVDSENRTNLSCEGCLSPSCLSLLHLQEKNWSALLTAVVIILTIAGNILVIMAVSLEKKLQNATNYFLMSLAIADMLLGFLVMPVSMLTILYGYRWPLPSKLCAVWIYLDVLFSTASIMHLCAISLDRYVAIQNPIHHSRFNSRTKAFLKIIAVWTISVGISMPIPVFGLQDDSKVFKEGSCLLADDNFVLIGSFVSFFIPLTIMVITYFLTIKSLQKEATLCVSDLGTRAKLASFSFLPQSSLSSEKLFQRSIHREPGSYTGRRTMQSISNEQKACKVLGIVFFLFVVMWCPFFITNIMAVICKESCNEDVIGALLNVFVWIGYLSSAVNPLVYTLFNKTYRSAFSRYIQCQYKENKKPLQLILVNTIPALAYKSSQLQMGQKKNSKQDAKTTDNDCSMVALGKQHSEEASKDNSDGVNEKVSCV
T5 sequence (P25021 whole entry): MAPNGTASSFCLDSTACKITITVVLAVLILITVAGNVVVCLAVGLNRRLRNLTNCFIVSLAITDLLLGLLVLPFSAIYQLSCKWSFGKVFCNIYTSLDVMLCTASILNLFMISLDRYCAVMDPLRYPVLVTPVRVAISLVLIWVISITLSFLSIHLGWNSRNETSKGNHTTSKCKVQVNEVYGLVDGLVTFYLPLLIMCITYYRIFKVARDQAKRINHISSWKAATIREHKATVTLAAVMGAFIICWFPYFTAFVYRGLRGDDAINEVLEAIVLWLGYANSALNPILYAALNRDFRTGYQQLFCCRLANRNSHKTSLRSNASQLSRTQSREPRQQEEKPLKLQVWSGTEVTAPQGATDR
T1 sequence (P28222 whole entry): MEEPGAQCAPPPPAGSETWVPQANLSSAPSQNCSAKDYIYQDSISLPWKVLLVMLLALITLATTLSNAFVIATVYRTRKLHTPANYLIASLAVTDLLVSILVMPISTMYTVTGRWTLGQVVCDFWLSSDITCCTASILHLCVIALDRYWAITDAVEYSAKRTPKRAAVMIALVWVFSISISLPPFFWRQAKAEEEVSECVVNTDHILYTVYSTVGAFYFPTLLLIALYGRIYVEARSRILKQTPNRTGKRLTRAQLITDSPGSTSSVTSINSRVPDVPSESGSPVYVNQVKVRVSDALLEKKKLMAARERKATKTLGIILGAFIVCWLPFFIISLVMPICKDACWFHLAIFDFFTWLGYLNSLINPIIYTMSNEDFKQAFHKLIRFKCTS

With `C/C(=C\n1c2c(c3cc(C)ccc31)CN(C)C(C)C2)c1ccc(C)nc1` (stereo not drawn) [Compound 259, (E)-2,3,8-trimethyl-5-(2-(6-methylpyridin-3-yl)prop-1-enyl)-2,3,4,5-tetrahydro-1H-pyrido[4,3-b]indole], the inhibition (commonly the change of the read-out against control, counted positive when it falls) at 1 µM was 10% in test [1] and -12% in test [4] (setting [9]). Moreover, the inhibition at 0.1 µM in test [2] was determined as 81%; in test [5], 96%; in test [6] it was 92%; in test [7], 21%. For the same compound, the “5-HT1B (5 μM) % Binding relative to bound radioligand” value in test [3] worked out at 25%.
With `C/C=C(\Cn1c2c(c3cc(C)ccc31)CN(C)CC2)c1ccncc1` [Compound No. 359, (Z)-2,8-dimethyl-5-(2-(pyridin-4-yl)but-2-enyl)-2,3,4,5-tetrahydro-1H-pyrido[4,3-b]indole], the inhibition at 1 µM in test [1] amounted to 38%; in test [4] ([…] [3H]Spiperone, read-out: Inhibition of ligand binding, Dopamine D2L (percent inhibition of specific binding)), 27%. Further, the “5-HT1B (5 μM) % Binding relative to bound radioligand” value in test [3] is 68%.
With `C/C(=C\n1c2c(c3cc(C)ccc31)CN(C)CC2)c1ccc(O)cc1` [Compound 235, (E)-4-(1-(2,8-dimethyl-3,4-dihydro-1H-pyrido[4,3-b]indol-5(2H)-yl)prop-1-en-2-yl)phenol], the inhibition at 1 µM in test [1] was determined as 73%; in test [8], 96%; in test [2] it was 96%; in test [4] (setting [9]), 80%; in test [5], 98%; in test [6] it was 101%. In test [7], the inhibition at 1 µM stood at 99%.
`C/C(=C\n1c2c(c3cc(Cl)ccc31)CN(C)CC2)c1cccnc1` [Compound 86, (E)-8-chloro-2,3,4,5-tetrahydro-2-methyl-5-(2-(pyridin-3-yl)prop-1-enyl)-1H-pyrido[4,3-b]indole]: the inhibition at 1 µM in test [1] was determined as 72%; in test [8], 54%; in test [2], 93%; in test [4] (setting [9]), 40%; in test [5] it was 95%; in test [6], 94%. Also, the inhibition at 1 µM in test [7] was determined as 77%.
As for `C/C(=C/n1c2c(c3cc(C)ccc31)CN(C)CC2)c1ccc(F)cc1F` [Compound 274, (Z)-5-(2-(2,4-difluorophenyl)prop-1-enyl)-2,8-dimethyl-2,3,4,5-tetrahydro-1H-pyrido[4,3-b]indole], the inhibition at 1 µM in test [1] came out at 72%; in test [4] (setting [9]) it was 56%. For the same compound, the inhibition at 0.1 µM came to 94% in test [2], 98% in test [5], 99% in test [6] and 97% in test [7]. The “5-HT1B (5 μM) % Binding relative to bound radioligand” value in test [3] came to 6%.
Regarding `COc1ccc2c(c1)c1c(n2/C=C(/C)c2ccncc2)CCN(C)C1` [Compound 239, (Z)-8-methoxy-2-methyl-5-(2-(pyridin-4-yl)prop-1-enyl)-2,3,4,5-tetrahydro-1H-pyrido[4,3-b]indole], the inhibition at 1 µM in test [1] is 14%; in test [8], 28%; in test [2], 98%; in test [4] (setting [9]), 39%; in test [5], 93%; in test [6], 93%. In addition, the inhibition at 1 µM in test [7] stood at 104%.
`C/C(=C\n1c2c(c3cc(C)ccc31)CN(C)CC2)c1cccc(F)c1` [Compound 226, (E)-5-(2-(3-fluorophenyl)prop-1-enyl)-2,8-dimethyl-2,3,4,5-tetrahydro-1H-pyrido[4,3-b]indole]: the inhibition at 1 µM came to 71% in test [1]; 100% in test [8]; 100% in test [2]; 46% in test [4] (setting [9]); 98% in test [5]; 100% in test [6]. For the same compound, the inhibition at 1 µM in test [7] turned out to be 101%.
